pIC50: −log10 of the molar value. Calls of active or inactive are those of the source. The calls are words filed in the database; no cut-off is given here.
Assays:
[1] = test system: Rattus norvegicus; assay: Analgesic activity in Chronic constriction injury rat model assessed as decrease in hyperalgesia at 250 microg/kg,IM administrated every 2 hrs for 7 days; type: functional, organism-based; details: dose 250.0 µg/kg, time 7.0 day
[2] = molecular target: T1, Neuronal acetylcholine receptor; alpha9/alpha10 (Homo sapiens) (UniProt Q9UGM1+Q9GZZ6); assay: Antagonist activity at human alpha9alpha10 nAChR expressed in acetylcholine-induced Xenopus laevis oocytes assessed as inhibition of acetylcholine-induced current at 30 nM at -80 mV holding potential by two electrode voltage-clamp assay; type: cell-based; details: Oocyte, filed as antagonist
[3] = test system: Rattus norvegicus; assay: Analgesic activity in Chronic constriction injury rat model assessed as decrease in hyperalgesia at 250 microg/kg,IM administrated every 2 hrs for 14 days; type: functional, organism-based; details: dose 250.0 µg/kg, time 14.0 day
[4] = molecular target: Neuronal acetylcholine receptor subunit alpha-7 (Rattus norvegicus) (UniProt Q05941); assay: Antagonist activity at rat alpha7 nAChR expressed in acetylcholine-induced Xenopus laevis oocytes assessed as inhibition of acetylcholine-induced current at 100 nM by two electrode voltage-clamp assay relative to control; type: cell-based; details: Oocyte
[5] = Toxicity in rat assessed as motor impairment at 250 microg/kg,IM administrated for 14 consecutive days by rotarod test; details: in vivo, 0.25 mg/kg, dose 250 µg/kg
[6] = molecular target: Sodium channel protein type 10 subunit alpha (Homo sapiens) (UniProt Q9Y5Y9); assay: Inhibition of Nav1.8 (unknown origin) at 1 uM
[7] = molecular target: Neuronal acetylcholine receptor subunit alpha-7 (Rattus norvegicus) (UniProt Q05941); assay: Antagonist activity at rat alpha7 nAChR expressed in acetylcholine-induced Xenopus laevis oocytes assessed as inhibition of acetylcholine-induced current at 30 nM by two electrode voltage-clamp assay relative to control; type: cell-based; details: Oocyte
[8] = molecular target: Sodium channel protein type 9 subunit alpha (Homo sapiens) (UniProt Q15858); assay: Inhibition of Nav1.7 (unknown origin) at 1 uM
[9] = Antagonist activity at human alpha9N152G mutant alpha10 nAChR expressed in acetylcholine-induced Xenopus laevis oocytes assessed as inhibition of acetylcholine-induced current at 1:3 ratio of protein by two electrode voltage-clamp assay; type: cell-based; details: Oocyte
[10] = Antagonist activity at human alpha9alpha10G152N mutant nAChR expressed in acetylcholine-induced Xenopus laevis oocytes assessed as inhibition of acetylcholine-induced current at 1:3 ratio of protein by two electrode voltage-clamp assay; type: cell-based; details: Oocyte
[11] = molecular target: Neuronal acetylcholine receptor; alpha9/alpha10 (Homo sapiens, UniProt Q9GZZ6+Q9UGM1); assay: Antagonist activity at human wild type alpha9alpha10 nAChR expressed in acetylcholine-induced Xenopus laevis oocytes assessed as inhibition of acetylcholine-induced current at 1:1 ratio of protein by two electrode voltage-clamp assay; type: cell-based, Oocyte
[12] = molecular target: Voltage-dependent N-type calcium channel subunit alpha-1B (Homo sapiens, UniProt Q00975); assay: Inhibition of human Cav2.2 channel transfected in HEK293T cells assessed as inhibition of Cav2.2-mediated Ba2+ current measured for 3 to 5 days by whole-cell patch clamp assay; type: cell-based
[13] = molecular target: T2, Potassium voltage-gated channel subfamily KQT member 3 (Homo sapiens) (UniProt O43525); assay: Inhibition of KCNQ3 (unknown origin) at 1 uM
T2 sequence (whole entry): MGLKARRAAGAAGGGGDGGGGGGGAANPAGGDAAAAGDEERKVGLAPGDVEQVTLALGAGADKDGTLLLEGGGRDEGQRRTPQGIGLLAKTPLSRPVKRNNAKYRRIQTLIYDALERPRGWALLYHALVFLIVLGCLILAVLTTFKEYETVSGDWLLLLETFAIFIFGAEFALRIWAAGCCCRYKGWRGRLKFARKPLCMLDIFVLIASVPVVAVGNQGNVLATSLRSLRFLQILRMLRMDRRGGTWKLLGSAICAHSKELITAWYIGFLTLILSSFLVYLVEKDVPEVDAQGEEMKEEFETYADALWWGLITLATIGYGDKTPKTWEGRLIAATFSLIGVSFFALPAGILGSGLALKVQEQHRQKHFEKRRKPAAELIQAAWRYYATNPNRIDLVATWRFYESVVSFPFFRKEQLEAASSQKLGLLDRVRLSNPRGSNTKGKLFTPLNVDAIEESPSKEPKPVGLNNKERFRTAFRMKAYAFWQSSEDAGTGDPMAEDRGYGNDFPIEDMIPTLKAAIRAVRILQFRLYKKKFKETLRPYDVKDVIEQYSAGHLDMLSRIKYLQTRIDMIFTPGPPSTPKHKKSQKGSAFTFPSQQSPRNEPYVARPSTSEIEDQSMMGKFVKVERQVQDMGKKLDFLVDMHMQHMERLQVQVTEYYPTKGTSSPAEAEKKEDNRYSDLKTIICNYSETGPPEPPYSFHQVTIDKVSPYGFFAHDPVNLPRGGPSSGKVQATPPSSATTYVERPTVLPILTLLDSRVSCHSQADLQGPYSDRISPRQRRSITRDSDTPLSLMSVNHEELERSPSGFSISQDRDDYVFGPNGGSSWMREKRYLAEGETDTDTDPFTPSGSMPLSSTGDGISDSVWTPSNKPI

[14] = Antagonist activity at human alpha9alpha10G152N mutant nAChR expressed in acetylcholine-induced Xenopus laevis oocytes assessed as inhibition of acetylcholine-induced current at 1:1 ratio of protein by two electrode voltage-clamp assay; type: cell-based; details: Oocyte
[15] = test system: Rattus norvegicus; assay: Analgesic activity in Chronic constriction injury rat model assessed as decrease in hyperalgesia at 250 microg/kg,IM administration and measured for 0.5 to 48 hrs; type: functional, organism-based; details: dose 250.0 µg/kg, time 0.5-48 hrs
[16] = molecular target: Neuronal acetylcholine receptor subunit alpha-7 (Homo sapiens, UniProt P36544); assay: Antagonist activity at human alpha7 nAChR expressed in acetylcholine-induced Xenopus laevis oocytes assessed as inhibition of acetylcholine-induced current at 30 nM by two electrode voltage-clamp assay; type: cell-based; details: Oocyte, filed as antagonist
[17] = molecular target: T3, Acid-sensing ion channel 3 (Homo sapiens) (UniProt Q9UHC3); assay: Inhibition of ASIC3 (unknown origin) at 1 uM
T3 sequence (whole entry): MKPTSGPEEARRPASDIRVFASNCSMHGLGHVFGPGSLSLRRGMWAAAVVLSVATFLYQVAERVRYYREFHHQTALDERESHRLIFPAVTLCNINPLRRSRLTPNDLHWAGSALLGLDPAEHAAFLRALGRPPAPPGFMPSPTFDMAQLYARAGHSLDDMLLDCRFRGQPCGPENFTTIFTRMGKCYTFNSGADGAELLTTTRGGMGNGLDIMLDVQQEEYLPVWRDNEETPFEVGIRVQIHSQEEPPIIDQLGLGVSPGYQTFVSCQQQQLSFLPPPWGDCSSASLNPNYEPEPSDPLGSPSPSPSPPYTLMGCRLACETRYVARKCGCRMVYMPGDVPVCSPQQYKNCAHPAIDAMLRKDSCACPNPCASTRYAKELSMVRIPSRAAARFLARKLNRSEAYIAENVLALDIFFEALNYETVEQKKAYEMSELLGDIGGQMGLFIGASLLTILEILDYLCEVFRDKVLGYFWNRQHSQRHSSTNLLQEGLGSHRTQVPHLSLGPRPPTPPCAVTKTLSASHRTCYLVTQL

[18] = molecular target: T1, Neuronal acetylcholine receptor; alpha9/alpha10 (Homo sapiens); assay: Antagonist activity at human wild type alpha9alpha10 nAChR expressed in acetylcholine-induced Xenopus laevis oocytes assessed as inhibition of acetylcholine-induced current at 30 nM by two electrode voltage-clamp assay relative to control; type: cell-based; details: Oocyte, filed as antagonist

Sequence of Neuronal acetylcholine receptor subunit alpha-7 (Rattus norvegicus) (Q05941 whole entry): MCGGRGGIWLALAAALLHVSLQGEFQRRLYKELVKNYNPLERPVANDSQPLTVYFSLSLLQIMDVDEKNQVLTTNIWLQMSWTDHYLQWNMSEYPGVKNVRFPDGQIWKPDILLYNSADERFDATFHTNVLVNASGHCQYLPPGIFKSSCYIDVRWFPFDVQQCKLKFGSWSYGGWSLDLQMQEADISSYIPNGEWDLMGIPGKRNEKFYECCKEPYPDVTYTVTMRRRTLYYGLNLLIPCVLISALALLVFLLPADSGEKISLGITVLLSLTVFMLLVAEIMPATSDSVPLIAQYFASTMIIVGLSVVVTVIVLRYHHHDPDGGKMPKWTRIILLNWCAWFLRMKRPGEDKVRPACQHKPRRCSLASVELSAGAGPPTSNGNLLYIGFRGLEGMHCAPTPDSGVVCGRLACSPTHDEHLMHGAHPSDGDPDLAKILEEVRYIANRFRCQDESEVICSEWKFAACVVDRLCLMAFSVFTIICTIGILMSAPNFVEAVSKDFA
Sequence of Sodium channel protein type 10 subunit alpha (Homo sapiens) (Q9Y5Y9 whole entry, looked up): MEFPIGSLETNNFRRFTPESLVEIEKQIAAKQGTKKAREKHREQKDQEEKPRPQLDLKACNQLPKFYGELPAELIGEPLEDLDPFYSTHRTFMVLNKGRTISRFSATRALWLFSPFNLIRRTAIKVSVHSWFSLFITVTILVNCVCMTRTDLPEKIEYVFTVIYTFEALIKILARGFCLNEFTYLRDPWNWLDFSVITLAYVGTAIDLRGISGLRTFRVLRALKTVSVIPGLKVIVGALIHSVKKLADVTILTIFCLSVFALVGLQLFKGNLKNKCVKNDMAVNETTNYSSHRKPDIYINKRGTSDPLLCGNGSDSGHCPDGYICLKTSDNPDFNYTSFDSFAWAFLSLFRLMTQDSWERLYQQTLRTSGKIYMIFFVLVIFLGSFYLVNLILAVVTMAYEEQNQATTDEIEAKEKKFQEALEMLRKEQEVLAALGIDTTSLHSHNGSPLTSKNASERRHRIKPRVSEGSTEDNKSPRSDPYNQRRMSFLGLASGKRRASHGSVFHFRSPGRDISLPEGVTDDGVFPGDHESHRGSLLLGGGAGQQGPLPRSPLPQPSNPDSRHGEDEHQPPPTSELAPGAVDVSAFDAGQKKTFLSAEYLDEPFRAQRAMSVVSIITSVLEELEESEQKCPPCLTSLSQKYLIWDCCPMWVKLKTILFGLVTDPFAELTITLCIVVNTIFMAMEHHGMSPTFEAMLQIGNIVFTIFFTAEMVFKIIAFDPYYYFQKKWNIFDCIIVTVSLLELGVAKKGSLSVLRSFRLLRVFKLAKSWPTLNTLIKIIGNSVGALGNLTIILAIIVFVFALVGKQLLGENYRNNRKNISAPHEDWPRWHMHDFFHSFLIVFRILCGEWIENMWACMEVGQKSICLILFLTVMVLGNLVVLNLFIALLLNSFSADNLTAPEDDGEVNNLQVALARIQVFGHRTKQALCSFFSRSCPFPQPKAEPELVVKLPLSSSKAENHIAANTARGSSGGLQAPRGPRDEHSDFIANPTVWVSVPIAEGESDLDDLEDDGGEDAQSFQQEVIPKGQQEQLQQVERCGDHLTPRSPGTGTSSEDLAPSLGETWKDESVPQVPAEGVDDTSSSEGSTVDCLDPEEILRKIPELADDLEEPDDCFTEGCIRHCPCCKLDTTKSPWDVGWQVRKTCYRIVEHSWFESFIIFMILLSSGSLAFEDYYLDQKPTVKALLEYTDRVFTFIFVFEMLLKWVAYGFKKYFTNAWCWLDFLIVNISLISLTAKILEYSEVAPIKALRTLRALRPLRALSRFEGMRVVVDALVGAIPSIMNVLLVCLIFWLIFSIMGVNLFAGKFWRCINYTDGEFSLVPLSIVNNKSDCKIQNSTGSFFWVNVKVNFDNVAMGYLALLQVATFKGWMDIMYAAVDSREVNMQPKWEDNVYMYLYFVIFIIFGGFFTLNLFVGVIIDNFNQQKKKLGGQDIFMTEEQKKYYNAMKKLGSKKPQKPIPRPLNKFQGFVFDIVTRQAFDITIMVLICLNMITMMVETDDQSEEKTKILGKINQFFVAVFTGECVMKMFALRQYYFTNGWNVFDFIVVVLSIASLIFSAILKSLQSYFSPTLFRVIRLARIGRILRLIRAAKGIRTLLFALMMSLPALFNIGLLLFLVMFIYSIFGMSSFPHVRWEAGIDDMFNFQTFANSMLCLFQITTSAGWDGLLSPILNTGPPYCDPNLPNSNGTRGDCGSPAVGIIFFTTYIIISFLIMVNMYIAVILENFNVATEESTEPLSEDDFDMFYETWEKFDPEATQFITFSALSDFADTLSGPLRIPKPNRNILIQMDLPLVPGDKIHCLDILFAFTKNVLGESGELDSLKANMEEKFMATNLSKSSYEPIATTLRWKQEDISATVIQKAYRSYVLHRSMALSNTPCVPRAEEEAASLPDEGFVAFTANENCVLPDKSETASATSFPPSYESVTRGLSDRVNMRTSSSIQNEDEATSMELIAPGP
Sequence of Neuronal acetylcholine receptor; alpha9/alpha10 (Q9UGM1 whole entry): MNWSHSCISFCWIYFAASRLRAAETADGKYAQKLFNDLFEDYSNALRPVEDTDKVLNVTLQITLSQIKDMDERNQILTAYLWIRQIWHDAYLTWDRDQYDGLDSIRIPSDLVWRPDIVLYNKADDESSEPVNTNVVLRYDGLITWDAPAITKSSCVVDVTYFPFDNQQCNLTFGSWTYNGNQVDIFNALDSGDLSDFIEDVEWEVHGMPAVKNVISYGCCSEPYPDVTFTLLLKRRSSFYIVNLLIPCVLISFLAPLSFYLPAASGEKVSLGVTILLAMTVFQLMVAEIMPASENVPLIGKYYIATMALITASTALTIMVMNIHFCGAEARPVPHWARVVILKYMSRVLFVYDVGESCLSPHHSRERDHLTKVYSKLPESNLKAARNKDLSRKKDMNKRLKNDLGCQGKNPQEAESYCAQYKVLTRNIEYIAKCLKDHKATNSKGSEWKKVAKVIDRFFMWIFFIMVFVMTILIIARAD
Sequence of Neuronal acetylcholine receptor; alpha9/alpha10 (Q9GZZ6 whole entry): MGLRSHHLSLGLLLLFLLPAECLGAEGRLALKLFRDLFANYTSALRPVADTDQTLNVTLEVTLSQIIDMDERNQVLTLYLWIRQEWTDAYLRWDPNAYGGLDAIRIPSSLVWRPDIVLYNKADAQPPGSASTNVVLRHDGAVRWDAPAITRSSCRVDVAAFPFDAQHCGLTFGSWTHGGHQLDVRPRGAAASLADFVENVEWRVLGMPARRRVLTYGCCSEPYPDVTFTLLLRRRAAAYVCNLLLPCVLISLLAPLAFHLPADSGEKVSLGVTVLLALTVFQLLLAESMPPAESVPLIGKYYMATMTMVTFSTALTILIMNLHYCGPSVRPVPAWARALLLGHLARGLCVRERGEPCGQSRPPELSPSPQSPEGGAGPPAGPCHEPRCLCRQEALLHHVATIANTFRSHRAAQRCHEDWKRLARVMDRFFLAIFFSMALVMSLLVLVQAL
Sequence of Neuronal acetylcholine receptor subunit alpha-7 (P36544 whole entry): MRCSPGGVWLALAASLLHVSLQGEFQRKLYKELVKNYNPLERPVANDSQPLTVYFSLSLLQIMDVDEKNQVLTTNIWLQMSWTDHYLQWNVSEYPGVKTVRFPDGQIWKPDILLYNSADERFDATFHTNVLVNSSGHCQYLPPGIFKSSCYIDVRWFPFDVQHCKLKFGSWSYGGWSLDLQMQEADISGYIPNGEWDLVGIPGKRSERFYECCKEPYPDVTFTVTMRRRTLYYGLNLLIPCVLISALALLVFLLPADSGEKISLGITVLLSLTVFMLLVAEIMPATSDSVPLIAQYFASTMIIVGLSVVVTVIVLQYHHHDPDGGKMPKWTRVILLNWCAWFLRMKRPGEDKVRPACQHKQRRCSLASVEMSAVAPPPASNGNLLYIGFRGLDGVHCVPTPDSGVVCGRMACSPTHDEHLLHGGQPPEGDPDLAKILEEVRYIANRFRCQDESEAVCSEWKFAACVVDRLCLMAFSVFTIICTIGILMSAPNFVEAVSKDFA

In the case of `CC[C@H](C)[C@H](NC(=O)[C@H](CCCNC(=N)N)NC(=O)[C@H](CCCNC(=N)N)NC(=O)[C@H](Cc1ccc(O)cc1)NC(=O)[C@H](CCCNC(=N)N)NC(=O)[C@H](CCCNC(=N)N)NC(=O)[C@H](CCCNC(=N)N)NC(=O)[C@H](CCCNC(=N)N)NC(=O)[C@H](CC(=O)O)NC(=O)[C@H](Cc1ccc(O)cc1)NC(=O)[C@@H]1CCCN1C(=O)[C@H](CO)NC(=O)[C@H](CCCNC(=N)N)NC(=O)[C@H](Cc1ccc(O)cc1)NC(=O)[C@H](CCCNC(=N)N)NC(=O)CN)C(=O)N[C@H](C(=O)N[C@@H](CC(=O)O)C(N)=O)[C@@H](C)O`, the Activity [1] was “Active”, the inhibition [2] was “Active” and the Activity [3] was “Active”. For the same molecule, the inhibition [4] was 35%, the Activity [5] was “Non-Toxic” and the inhibition [6] was “inactive”. For the same molecule, the inhibition [7] was 10%, the inhibition [8] was “inactive” and the pIC50 [9] was 8.06. It also gave a pIC50 [10] of 7.68, a pIC50 [11] of 7.59 and a pIC50 [12] of 8.34. The inhibition [13] was “inactive”, the pIC50 [14] was 7.60 and the Activity [15] was “Active”. The inhibition [16] was 40%, the inhibition [17] was “inactive” and the inhibition [18] was 50%.

Reference: ChEMBL document CHEMBL5537181 (J Med Chem, 2024)
